Source: paper PMC8059561, “Lowered sensitivity of bitter taste receptors to β-glucosides in bamboo lemurs: an instance of parallel and adaptive functional decline in TAS2R16?” (Proceedings of the Royal Society B: Biological Sciences, 2021)

Assays:
TAS2R16 from H. aureus = assay: Calcium assay, HEK293T cells expressing H. aureus TAS2R16 with Gα16/gust44; format: cell-based, Hapalemur aureus
TAS2R16 from H. griseus = assay: Calcium assay, HEK293T cells expressing H. griseus TAS2R16 with Gα16/gust44; format: cell-based, Hapalemur griseus
TAS2R16 from L. catta = TAS2R16 from L. catta (Lemur catta, UniProt A0A4Y1QJW7); assay: Calcium assay, HEK293T cells expressing L. catta TAS2R16 with Gα16/gust44; format: cell-based; settings: Calcium 4, mean ± s.e.m.
Chain of TAS2R16 from L. catta (A0A4Y1QJW7 1-301): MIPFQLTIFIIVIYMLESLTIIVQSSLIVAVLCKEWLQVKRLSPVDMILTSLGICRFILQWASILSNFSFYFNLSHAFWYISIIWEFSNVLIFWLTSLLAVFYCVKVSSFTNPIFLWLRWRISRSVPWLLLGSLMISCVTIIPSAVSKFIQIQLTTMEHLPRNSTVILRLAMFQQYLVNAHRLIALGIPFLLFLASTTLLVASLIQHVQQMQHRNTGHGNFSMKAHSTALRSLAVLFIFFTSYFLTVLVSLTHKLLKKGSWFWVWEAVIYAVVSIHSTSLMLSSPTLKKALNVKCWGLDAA

TAS2R16 from P. simus = TAS2R16 from P. simus (Prolemur simus, UniProt A0A8C8ZSN9); assay: Calcium assay, HEK293T cells expressing P. simus TAS2R16 with Gα16/gust44; format: cell-based
Chain of TAS2R16 from P. simus (A0A8C8ZSN9 1-301): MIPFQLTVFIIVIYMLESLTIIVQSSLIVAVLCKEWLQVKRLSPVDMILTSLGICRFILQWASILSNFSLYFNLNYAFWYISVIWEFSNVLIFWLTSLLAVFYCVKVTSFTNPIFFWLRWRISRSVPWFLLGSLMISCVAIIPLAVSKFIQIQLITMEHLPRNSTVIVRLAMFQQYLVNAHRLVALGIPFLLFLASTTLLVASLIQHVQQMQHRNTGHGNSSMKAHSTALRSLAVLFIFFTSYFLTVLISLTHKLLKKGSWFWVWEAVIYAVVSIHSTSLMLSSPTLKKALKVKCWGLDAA

[1] = test system: anc-Bamboo lemur T140A /S144L TAS2R16; assay: Calcium assay, double mutant anc-Bamboo lemur T140A/S144L (reply to referee); format: cell-based, last common ancestor (LCA) in bamboo lemurs; settings: figure not shown
TAS2R16 P. simus L144S = molecular target: T1, TAS2R16 P. simus L144S (Prolemur simus, UniProt A0A8C8ZSN9, L144S); assay: Calcium assay, single-point mutant P. simus L144S TAS2R16; format: cell-based
T1 sequence (A0A8C8ZSN9 1-301 L144S): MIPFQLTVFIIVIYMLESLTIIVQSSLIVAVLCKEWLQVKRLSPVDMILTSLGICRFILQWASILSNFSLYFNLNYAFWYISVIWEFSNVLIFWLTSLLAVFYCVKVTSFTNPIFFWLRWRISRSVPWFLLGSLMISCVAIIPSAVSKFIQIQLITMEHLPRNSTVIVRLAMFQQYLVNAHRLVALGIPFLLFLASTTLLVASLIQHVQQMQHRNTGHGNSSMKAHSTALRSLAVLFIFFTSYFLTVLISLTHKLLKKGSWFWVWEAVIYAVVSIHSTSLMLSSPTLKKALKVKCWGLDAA

[2] = test system: TAS2R16 orthologue of Varecia variegata; design: method as in Itoigawa et al., [8]; settings: ref Itoigawa et al., [8]; cited from earlier work
[3] = HEK293T, Gα16/gust44, Calcium 5, mean ± s.e.m.

| Structure (SMILES) | response of TAS2R16 to ligand (TAS2R16 from H. aureus) | response of TAS2R16 to ligand (TAS2R16 from H. griseus) | EC50 (TAS2R16 from L. catta) | response of TAS2R16 to ligand (TAS2R16 from P. simus; at the concentrations used in the assays) | Amax (maximal signal amplitude, ΔF/F) (TAS2R16 from H. aureus; [3]) | Amax (maximal signal amplitude, ΔF/F) (TAS2R16 from H. griseus; [3]) | EC50 (TAS2R16 from H. aureus; HEK293T, Gα16/gust44, Calcium 4, mean ± s.e.m.) | responses of double mutant compared to single mutant (anc-Bamboo lemur S144L) [1] | EC50 (TAS2R16 P. simus L144S) | EC50 [2] | EC50 (TAS2R16 from P. simus; HEK293T, Gα16/gust44, Calcium 4) |
| --- | --- | --- | --- | --- | --- | --- | --- | --- | --- | --- | --- |
| OC[C@H]1O[C@@H](Oc2ccc(O)cc2)[C@H](O)[C@@H](O)[C@@H]1O [arbutin] | did not show any responses | did not show any responses | 2.3 ± 0.21 mM | did not show any responses |  |  |  |  |  |  |  |
| CC(C)(C#N)O[C@@H]1O[C@H](CO)[C@@H](O)[C@H](O)[C@H]1O [linamarin] |  |  |  |  | 0.52 ± 0.041 | 0.33 ± 0.031 |  |  |  |  |  |
| OCc1ccccc1O[C@@H]1O[C@H](CO)[C@@H](O)[C@H](O)[C@H]1O [salicin] |  |  | 2.1 ± 0.38 mM |  |  |  | 6.8 ± 1.1 mM | did not show significant reduction | 4.3 ± 0.85 mM | 3.8 mM | > 40 mM |
